Where “and” joins values, the source holds several entries; their conditions need not be identical. Identical values can stand only once.
How the values were obtained:
[1] = mouse, in vivo
Excerpt: This is a rapid and sensitive method to evaluate the penetration of various compounds in the central nervous system. Young mice (25-30 g, Iffa-Credo; l'Arbresle, France) were anaesthetised. After exposure of the common carotid, the right external carotid artery was tied at the bifurcation with the internal carotid and the common carotid was tied between the heart and the catheter implantation site (polyethylene catheter, ID: 0.76). The catheter previously filled with a heparin solution (100 units/ml) was inserted into the common carotid. The mice were infused with the infusion buffer (128 mM NaCl, 24 mM NaHCO3, 4.2 mM KCl, 2.4 mM NaH2PO4, 1.5 mM CaCl2, 0.9 mM MgSO4 and 9 mM D-glucose). The buffer was filtered and then bubbled with a mixture containing 95% O2/5% CO2 to maintain the pH close to 7.4 and supply the brain with oxygen during the infusion.
In each product, the doxorubicin was radiolabelled with carbon 14 (specific activity: 9.4 μCi/mg, Amersham, France) . The products were infused at a concentration of 0.33 μCi/ml or 0.035 mg/mouse.
Just before the start of infusion, the heart was stopped by ventricular section to prevent infusate reflux during infusion. The right hemisphere was then infused at a rate of 10 ml/min for 60 seconds, after which the mouse was decapitated. […]

K562 cells = assay: Cell penetration of NBD-labelled peptides by flow cytometry (FACS); format: cell-based; details: for penetration (mean fluorescent intensity): NBD-labelled peptide 1 μM, 37° C.; for penetration relative to that of SynB1: at 60 min; for penetration compared with the reference peptide (in words): irrespective of the time interval
Method: Cell penetration of the peptides was studied by flow cytometry. The K562 cells were cultured in RPMI medium with 10% foetal calf serum. The cells were diluted to 0.3×10^6 cells per ml 24 hours before the experiment. The cell penetration was measured by flow cytometry using a FACScan (Becton Dickinson, USA). The peptides labelled with NBD (final concentration 1 μM) were incubated with the K562 cells (5×10^5 cells per ml) in Optimem medium at 37° C. for variable periods (the final volume was 0.5 ml). After incubation, the cells were washed twice and then resuspended in 0.5 ml of cold PBS. The penetration was then analysed by FACS. The fluorophors were excited at 488 nm and the fluorescence measured at 525 nm. A histogram of the fluorescent intensity (for 1×10^4 cells) was obtained and the mean distribution considered to be representative of the quantity of peptide associated with the cells.

Substance	increase of passage into the brain (influx constant Kin) versus doxorubicin alone [1] [times]	penetration (mean fluorescent intensity) (K562 cells; Time 0 min)	penetration (mean fluorescent intensity) (K562 cells; Time 5 min)	penetration (mean fluorescent intensity) (K562 cells; Time 10 min)	penetration (mean fluorescent intensity) (K562 cells; Time 30 min)	penetration (mean fluorescent intensity) (K562 cells; Time 60 min)	penetration relative to that of SynB1 (K562 cells) [times]	penetration compared with the reference peptide (in words) (K562 cells)
Doxo-(RGGRLSYSCitCitCitFSTSTGR) [Doxo-SynB1/3Cit]	20							
R G G R L A Y L R R R W A V L V G R (RGGRLAYLRRRWAVLVGR) [SM3979]		4	75	95	100	114	9	penetrate much more effectively
R G G R L S Y S R R R F S T S T G R (RGGRLSYSRRRFSTSTGR) [SynB1, reference compound]		4	7	7	8	12		
R G G R L V Y V R R R W V V V V G R (RGGRLVYVRRRWVVVVGR) [SM3980]		4	34	42	54	62	5	penetrate much more effectively
R L R W R L R L R F (RLRWRLRLRF) [SM4292]		4.5	140	140	141	146		
R L R W R L R Y R F (RLRWRLRYRF) [SM4291]		4.5	91	99	107	118		
R R L S Y S R R R F (RRLSYSRRRF) [SynB3, reference compound]		4 and 4.5	9.5 and 12	10 and 13	12 and 15	16 and 23		
R R L W L L R R R F (RRLWLLRRRF) [SM4288]		4	33	38	53	61		
R R L W R L L R R F (RRLWRLLRRF) [SM4290]		4	147	168	366	371		
R R L W R L Y R R F (RRLWRLYRRF) [SM4289]		4	63	80	107	135		
R R L W Y L R R R F (RRLWYLRRRF) [SM4287]		4	29	34	50	60		
RKLWYLRKRF [SM4293]		4.5	20	23	29	31		

— patent publication US20030186890A1, “Amphipathic linear peptides and formulations containing said peptides” (SYNT:EM S.A., priority 2000, published 2003)
